# According to paper PMC11768629, “Potential Interaction of Pinocembrin with Drug Transporters and Hepatic Drug-Metabolizing Enzymes” (Pharmaceuticals, 2025):
# Values joined by “and” are separate entries in the source; they are usually repeats but may differ in a detail not shown here. Equal entries are not always repeated. Where two headings read alike, the source gives them in different places.
# What was measured:
# [1] = target: T1, CYP2C9 (Homo sapiens, UniProt P11712); experiment: Cell-free CYP450 inhibition assay, CYP2C9; format: biochemical; conditions: cell-free fluorescent probe assay, BACULOSOMES
# T1 construct: purchased Life Technologies
# T1 sequence (P11712 whole entry): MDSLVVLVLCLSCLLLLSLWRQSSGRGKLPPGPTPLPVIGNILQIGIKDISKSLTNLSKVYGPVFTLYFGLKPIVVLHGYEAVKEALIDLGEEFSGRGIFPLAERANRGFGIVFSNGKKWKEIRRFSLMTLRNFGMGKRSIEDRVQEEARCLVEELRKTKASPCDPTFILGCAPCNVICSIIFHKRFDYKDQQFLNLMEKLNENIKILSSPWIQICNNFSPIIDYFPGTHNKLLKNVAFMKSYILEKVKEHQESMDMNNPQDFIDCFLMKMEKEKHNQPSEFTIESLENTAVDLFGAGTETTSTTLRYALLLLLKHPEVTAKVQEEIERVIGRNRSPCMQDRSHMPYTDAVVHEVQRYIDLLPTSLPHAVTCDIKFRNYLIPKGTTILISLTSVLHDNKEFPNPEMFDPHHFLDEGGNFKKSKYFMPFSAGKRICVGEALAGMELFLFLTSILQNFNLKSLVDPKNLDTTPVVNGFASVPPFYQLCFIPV
# Method: (§1) To determine whether pinocembrin influences the catalytic activity of CYP450 enzymes, fluorescent probe reaction assays were performed using varying concentrations of pinocembrin. […] In addition, molecular docking was conducted to better understand the binding mode and interactions between pinocembrin and human CYP2C19.
# (§2) The CYP450 inhibitory activity of pinocembrin was determined using a P450 screening kit (Life Technologies; Carlsbad, CA, USA). Varied concentrations of pinocembrin were prepared in methanol. […] The fluorescence intensities were monitored every minute for 60 min at room temperature. The percentage of inhibition was calculated according to the following equation: % Inhibition=(1−X−B/A−B)×100% where X is the fluorescence intensity observed in the presence of pinocembrin.
# [2] = target: T2, hMATE1 (Homo sapiens, UniProt Q96FL8); experiment: Cis-inhibition assay, 3H-MPP+ uptake in hMATE1-CHO-K1 cells; format: cell-based; conditions: pinocembrin, pH 8.5
# T2 construct: host or cells: CHO-K1
# T2 sequence (Q96FL8 whole entry): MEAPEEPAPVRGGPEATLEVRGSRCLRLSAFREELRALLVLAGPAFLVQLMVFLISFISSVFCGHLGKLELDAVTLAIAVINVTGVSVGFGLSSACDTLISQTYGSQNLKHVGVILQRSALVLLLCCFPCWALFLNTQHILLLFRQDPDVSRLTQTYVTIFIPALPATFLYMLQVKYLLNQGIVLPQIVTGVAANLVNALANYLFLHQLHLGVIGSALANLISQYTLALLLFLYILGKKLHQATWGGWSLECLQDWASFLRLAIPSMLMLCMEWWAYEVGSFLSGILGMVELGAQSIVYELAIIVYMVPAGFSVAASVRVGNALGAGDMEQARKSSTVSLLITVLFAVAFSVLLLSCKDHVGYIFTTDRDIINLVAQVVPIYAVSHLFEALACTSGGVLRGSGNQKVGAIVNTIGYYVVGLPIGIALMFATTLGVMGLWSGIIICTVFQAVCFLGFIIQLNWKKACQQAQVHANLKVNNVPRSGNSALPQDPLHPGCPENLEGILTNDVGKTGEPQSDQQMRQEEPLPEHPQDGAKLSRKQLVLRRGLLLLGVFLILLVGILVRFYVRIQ
# Method: (§3) Next, the effects of pinocembrin on the transport function of renal drug transporters, including hOAT1, hOAT3, hOCT1, hOCT2, hMATE1, and hMATE2, were determined.
# (§4) A cell monolayer comprising hOAT1-MDCK, hOAT3-MDCK, hOCT1-CHO-K1, hOCT2-CHO-K1, hMATE1-CHO-K1, hMATE2-CHO-K1, and mock cells were utilized for the uptake experiments. The cells were washed three times with a buffer containing (in mM) 140 NaCl, 5 KCl, 0.4 MgSO4, 0.5 MgCl2, 1 CaCl2, 0.3 Na2HPO4, 0.4 KH2PO4, 6 D-glucose, and 4 NaHCO3 at pH 7.4 and incubated at 37 °C for 15 min. After incubation, the hOAT1-MDCK and hOAT3-MDCK cells were incubated for 10 min with ^3H-PAH and ^3H-estrone sulfate, a substrate of hOAT1 and hOAT3, respectively. The hOCT1-CHO-K1 and hOCT2-CHO-K1 cells were incubated with ^3H-MPP^+, a substrate of OCT1 and OCT2, for five minutes. The functions of MATE1 and MATE2 were determined by incubating the hMATE1-CHO-K1 and hMATE2-CHO-K1 cells with a buffer containing ^3H-MPP^+, a substrate of MATE1 and MATE2, at pH 8.5 for five minutes. The cells were washed three times with an ice-cold buffer to stop the transport function. The cells were lyzed with 0.4 N NaOH for at least four hours. The samples were collected and transferred to vials containing a liquid scintillation cocktail to measure radioactivity by a β-counter (Packard BioScience, Wellesley, MA, USA). […]
# [3] = test system: CYP3A4; conditions: cited from earlier work
# [4] = parameters: method as in PMID 25814318; conditions: cited from earlier work
# [5] = target: T3, CYP2B6 (Homo sapiens, UniProt P20813); experiment: Cell-free CYP450 inhibition assay, CYP2B6; format: biochemical; conditions: cell-free fluorescent probe assay, BACULOSOMES
# T3 construct: purchased Life Technologies
# T3 sequence (P20813 whole entry): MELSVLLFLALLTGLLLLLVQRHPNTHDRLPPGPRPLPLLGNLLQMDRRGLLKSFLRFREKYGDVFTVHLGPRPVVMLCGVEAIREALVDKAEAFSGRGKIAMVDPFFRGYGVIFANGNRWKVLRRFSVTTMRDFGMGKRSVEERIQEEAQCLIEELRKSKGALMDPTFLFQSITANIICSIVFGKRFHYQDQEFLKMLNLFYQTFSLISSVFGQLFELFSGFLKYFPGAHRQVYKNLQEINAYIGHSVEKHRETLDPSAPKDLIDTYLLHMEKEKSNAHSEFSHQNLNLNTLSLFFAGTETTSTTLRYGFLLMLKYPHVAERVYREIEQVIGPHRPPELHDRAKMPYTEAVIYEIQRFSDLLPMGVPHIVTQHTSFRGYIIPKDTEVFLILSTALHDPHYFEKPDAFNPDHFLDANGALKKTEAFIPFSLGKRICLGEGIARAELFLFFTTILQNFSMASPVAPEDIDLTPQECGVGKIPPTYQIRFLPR
# Method: as §1, §2
# [6] = test system: OATP1A2; parameters: method as in PMID 28745105; conditions: transfected renal cells; cited from earlier work
# [7] = test system: CYP2A6; parameters: method as in PMID 34069400, doi:10.5562/cca3652, PMID 35721953; conditions: cited from earlier work
# [8] = test system: OATP2B1; parameters: method as in PMID 28745105; conditions: transfected renal cells; read-out: IC50 on OATP2B1-mediated rosuvastatin uptake; cited from earlier work
# [9] = target: T4, hOAT3 (Homo sapiens, UniProt Q8TCC7); experiment: Cis-inhibition assay, 3H-estrone sulfate uptake in hOAT3-MDCK cells; format: cell-based; conditions: 10 µM pinocembrin, compared with vehicle control
# T4 construct: host or cells: MDCK
# T4 sequence (Q8TCC7 1-542): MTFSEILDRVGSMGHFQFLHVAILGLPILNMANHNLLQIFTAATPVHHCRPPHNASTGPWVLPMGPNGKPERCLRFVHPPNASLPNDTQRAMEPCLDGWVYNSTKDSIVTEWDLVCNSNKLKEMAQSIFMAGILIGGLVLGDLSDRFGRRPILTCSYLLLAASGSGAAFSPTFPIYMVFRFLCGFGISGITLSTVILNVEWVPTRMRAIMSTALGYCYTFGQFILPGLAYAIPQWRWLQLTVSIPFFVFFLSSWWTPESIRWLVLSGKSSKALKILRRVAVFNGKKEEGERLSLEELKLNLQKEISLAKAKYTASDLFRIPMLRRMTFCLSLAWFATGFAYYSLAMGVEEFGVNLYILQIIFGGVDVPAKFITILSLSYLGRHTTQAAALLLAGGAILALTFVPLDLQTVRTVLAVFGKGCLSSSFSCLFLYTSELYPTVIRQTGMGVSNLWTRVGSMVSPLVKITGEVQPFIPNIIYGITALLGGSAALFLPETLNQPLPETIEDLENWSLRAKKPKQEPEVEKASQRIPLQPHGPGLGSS
# Method: as §3, §4
# [10] = test system: CYP1A2; conditions: cited from earlier work
# [11] = 80 mg intravenous injection, human subjects
smiles,measurement,setting,value
O=C1C[C@@H](c2ccccc2)Oc2cc(O)cc(O)c21 [pinocembrin],IC50,[1],345 µM
same,hMATE1-mediated uptake of 3H-MPP+,[2],did not alter
same,effect on the activity of CYP3A4,[3],inhibits the activities
same,effect on the activity of CYP3A4,[3]; concentrations of 1–5 µM,shows an inhibitory effect
same,maximal plasma concentration,[4]; 40 mg intravenous injection,0.6 µg/mL and 2.3 µM
same,maximal plasma concentration,[4]; 80 mg intravenous injection,4.7 µM
same,T1/2,[4]; [11],55 min
same,maximal plasma concentration (Cmax),[4]; [11],1220 ng/mL
same,observed plasma concentration,[4]; phase I clinical trials,3 to 10 µM
same,IC50,[5],44 µM
same,effect on OATP1A2 function,[6],weakly inhibits
same,effect on the activity of CYP2A6,[7],does not affect
same,IC50,[8],8.9 µM
same,3H-estrone sulfate cellular accumulation,[9],significantly decreased
same,mechanism of CYP1A2 inhibition,[10],competitive
same,effect on the activity of CYP1A2,[10]; concentrations of 1–5 µM,shows an inhibitory effect
